Measured values published in ChEMBL document CHEMBL5380860, “Design, Synthesis, and Antitumor Activity of Potent and Selective EGFR L858R/T790M Inhibitors and Identification of a Combination Therapy to Overcome Acquired Resistance in Models of Non-small-cell Lung Cancer” (J Med Chem, 2023).

How the values were obtained:
[1] = Cytotoxicity against human A-431 cells harboring wild type EGFR assessed as reduction in cell viability measured after 72 hrs by MTT assay; type: toxicity, cell-based
[2] = test system: NCI-H1975; experiment: Antiproliferative activity against human NCI-H1975 cells harboring EGFR L858R/T790M mutant assessed as reduction in cell viability measured after 72 hrs by MTT assay; type: functional, cell-based; conditions: NCI-H1975, 72 h
[3] = test system: HCC827; experiment: Antiproliferative activity against human HCC827 cells harboring EGFR exon del 19 mutant assessed as reduction in cell viability measured after 72 hrs by MTT assay; type: functional, cell-based; conditions: HCC827, 72 h
[4] = Cytotoxicity against human A549 cells harboring wild type EGFR assessed as reduction in cell viability measured after 72 hrs by MTT assay; type: toxicity, cell-based

C=CC(=O)Nc1cccc(Nc2nc(Nc3ccc(N4CCN(C)CC4)cc3)nc3ccc(C)cc23)c1
IC50 at 72 h [1]: 1.1 µM
IC50 [2]: 1980 nM
IC50 [3]: 1550 nM
IC50 at 72 h [4]: 2.31 µM

C=CC(=O)Nc1cccc(Nc2nc(Nc3ccc(N4CCC(N(C)C)CC4)cc3OC)nc3ccc(F)cc23)c1
IC50 at 72 h [1]: > 10 µM
IC50 [2]: 2430 nM
IC50 [3]: 1080 nM
IC50 at 72 h [4]: > 10 µM

C=CC(=O)Nc1cccc(Nc2nc(Nc3ccc(N4CCN(C)CC4)cc3)nc3ccc(OC)cc23)c1
IC50 at 72 h [1]: 4.82 µM
IC50 [2]: 2980 nM
IC50 [3]: 1760 nM
IC50 at 72 h [4]: 3.99 µM

C/C=C/C(=O)Nc1cccc(Nc2nc(Nc3ccc(N4CCN(C)CC4)cc3)nc3ccc(Cl)cc23)c1
IC50 at 72 h [1]: 4.53 µM
IC50 [2]: 231 nM
IC50 [3]: 221 nM
IC50 at 72 h [4]: 3.65 µM

CC(C)=CC(=O)Nc1cccc(Nc2nc(Nc3ccc(N4CCN(C)CC4)cc3)nc3ccc(Cl)cc23)c1
IC50 at 72 h [1]: 3.29 µM
IC50 [2]: 874 nM
IC50 [3]: 884 nM
IC50 at 72 h [4]: 5.33 µM

C=CC(=O)Nc1cccc(Nc2nc(Nc3ccc(N4CCC(N5CCN(C)CC5)CC4)cc3OC)nc3ccc(Cl)cc23)c1
IC50 at 72 h [1]: 6.6 µM
IC50 [2]: 1360 nM
IC50 [3]: 1680 nM
IC50 at 72 h [4]: > 10 µM

C=CC(=O)Nc1ccccc1Nc1nc(Nc2ccc(N3CCN(C)CC3)cc2)nc2ccc(Cl)cc12
IC50 at 72 h [1]: > 10 µM
IC50 [2]: 1320 nM
IC50 [3]: 1020 nM
IC50 at 72 h [4]: > 10 µM

C=CC(=O)Nc1cccc(Nc2nc(Nc3ccc(N4CCN(C)CC4)cc3)nc3c(F)cccc23)c1
IC50 at 72 h [1]: > 10 µM
IC50 [2]: 5480 nM
IC50 [3]: 2340 nM
IC50 at 72 h [4]: > 10 µM

C=CC(=O)Nc1cccc(Nc2nc(Nc3ccc(N4CCN(C)CC4)cc3OC)nc3ccc(Cl)cc23)c1
IC50 at 72 h [1]: 2.42 µM
IC50 [2]: 321 nM
IC50 [3]: 120 nM
IC50 at 72 h [4]: 3.52 µM

C=CC(=O)Nc1cccc(Nc2nc(Nc3ccc(C4CCN(C)CC4)cc3)nc3ccc(Cl)cc23)c1
IC50 at 72 h [1]: > 10 µM
IC50 [2]: 3410 nM
IC50 [3]: 2700 nM
IC50 at 72 h [4]: > 10 µM

C=CC(=O)Nc1ccc(Nc2nc(Nc3ccc(N4CCN(C)CC4)cc3)nc3ccc(Cl)cc23)cc1
IC50 at 72 h [1]: > 10 µM
IC50 [2]: 2320 nM
IC50 [3]: 1280 nM
IC50 at 72 h [4]: > 10 µM

C=CC(=O)Nc1cccc(Nc2nc(Nc3ccc(N4CCC(N(C)C)CC4)cc3)nc3ccc(Cl)cc23)c1
IC50 at 72 h [1]: 2.02 µM
IC50 [2]: 174 nM
IC50 [3]: 65 nM
IC50 at 72 h [4]: 1.83 µM

C=CC(=O)Nc1cccc(Nc2nc(Nc3ccc(N4CCN(C)CC4)cc3)nc3ccc(Br)cc23)c1
IC50 at 72 h [1]: 5.42 µM
IC50 [2]: 2630 nM
IC50 [3]: 1900 nM
IC50 at 72 h [4]: 8.71 µM

C=CC(=O)Nc1cccc(Nc2nc(Nc3ccc(N4CCN(C)CC4)cc3)nc3c(Cl)cccc23)c1
IC50 at 72 h [1]: > 10 µM
IC50 [2]: 5630 nM
IC50 [3]: 4640 nM
IC50 at 72 h [4]: > 10 µM

C=CC(=O)Nc1cccc(Nc2nc(Nc3ccc(N4CCN(C)CC4)cc3)nc3cc(Cl)ccc23)c1
IC50 at 72 h [1]: 7.62 µM
IC50 [2]: 3280 nM
IC50 [3]: 1850 nM
IC50 at 72 h [4]: 5.79 µM

C=CC(=O)Nc1cccc(Nc2nc(Nc3ccc(N4CCN(C)CC4)cc3)nc3c2CN(C(=O)OC(C)(C)C)CC3)c1
IC50 at 72 h [1]: > 10 µM
IC50 [2]: 8650 nM
IC50 [3]: 7810 nM
IC50 at 72 h [4]: > 10 µM

C=CC(=O)Nc1cccc(Nc2nc(Nc3ccc(N(C)CCN(C)C)cc3)nc3ccc(F)cc23)c1
IC50 at 72 h [1]: 3.15 µM
IC50 [2]: 1790 nM
IC50 [3]: 850 nM
IC50 at 72 h [4]: 2.57 µM

C=CC(=O)Nc1cccc(Nc2nc(Nc3ccc(N4CCN(C)CC4)cc3)nc3c2CCN(C(=O)OC(C)(C)C)C3)c1
IC50 at 72 h [1]: > 10 µM
IC50 [2]: > 10000 nM
IC50 [3]: > 10000 nM
IC50 at 72 h [4]: > 10 µM

C=CC(=O)Nc1cccc(Nc2nc(Nc3ccc(N4CCC(N5CCN(C)CC5)CC4)cc3)nc3ccc(Cl)cc23)c1
IC50 at 72 h [1]: 1.62 µM
IC50 [2]: 28 nM
IC50 [3]: 25 nM
IC50 at 72 h [4]: 2.1 µM

C=CC(=O)Nc1cccc(Nc2nc(Nc3ccc(C4CCN(C)CC4)cc3)nc3ccc(F)cc23)c1
IC50 at 72 h [1]: > 10 µM
IC50 [2]: 1090 nM
IC50 [3]: 1850 nM
IC50 at 72 h [4]: 5.86 µM

C=CC(=O)Nc1cccc(Nc2nc(Nc3ccc(N4CCN(C)CC4)cc3)nc3c2CCCC3)c1
IC50 at 72 h [1]: 4.56 µM
IC50 [2]: 3420 nM
IC50 [3]: 2310 nM
IC50 at 72 h [4]: 5.64 µM

C=CC(=O)Nc1cccc(Nc2nc(Nc3ccc(N4CCN(C)CC4)cc3)nc3c2CCN(C(=O)OCc2ccccc2)C3)c1
IC50 at 72 h [1]: > 10 µM
IC50 [2]: > 10000 nM
IC50 [3]: > 10000 nM
IC50 at 72 h [4]: > 10 µM

C=CC(=O)Nc1cccc(Nc2nc(Nc3ccc(N4CCC(N(C)C)CC4)cc3)nc3ccc(F)cc23)c1
IC50 at 72 h [1]: 1.84 µM
IC50 [2]: 165 nM
IC50 [3]: 56 nM
IC50 at 72 h [4]: 1.26 µM

C=CC(=O)Nc1cccc(Nc2nc(Nc3ccc(N4CCOCC4)cc3)nc3ccc(Cl)cc23)c1
IC50 at 72 h [1]: > 10 µM
IC50 [2]: 8560 nM
IC50 [3]: 8860 nM
IC50 at 72 h [4]: > 10 µM

C=CC(=O)Nc1cccc(Nc2nc(Nc3ccc(N4CCC(N(C)C)CC4)cc3OC)nc3ccc(Cl)cc23)c1
IC50 at 72 h [1]: 5.8 µM
IC50 [2]: 561 nM
IC50 [3]: 159 nM
IC50 at 72 h [4]: 3.59 µM

C=CC(=O)Nc1cccc(Nc2nc(Nc3ccc(N4CCN(C)CC4)cc3)nc3ccccc23)c1
IC50 at 72 h [1]: 6.79 µM
IC50 [2]: 2320 nM
IC50 [3]: 2320 nM
IC50 at 72 h [4]: 9.85 µM

C=CC(=O)Nc1cccc(Nc2nc(Nc3ccc(N(C)CCN(C)C)cc3)nc3ccc(Cl)cc23)c1
IC50 at 72 h [1]: 2.89 µM
IC50 [2]: 1240 nM
IC50 [3]: 950 nM
IC50 at 72 h [4]: 2.3 µM

C=CC(=O)Nc1cccc(Nc2nc(Nc3ccc(N(C)CCN(C)C)cc3OC)nc3ccc(Cl)cc23)c1
IC50 at 72 h [1]: > 10 µM
IC50 [2]: 6840 nM
IC50 [3]: 5980 nM
IC50 at 72 h [4]: > 10 µM

C=CC(=O)Nc1cccc(Nc2nc(Nc3ccc(N4CCN(C)CC4)cc3)nc3cc(OC)c(OC)cc23)c1
IC50 at 72 h [1]: > 10 µM
IC50 [2]: 4200 nM
IC50 [3]: 4230 nM
IC50 at 72 h [4]: > 10 µM

C=CC(=O)Nc1cccc(Nc2nc(Nc3ccc(N4CCOCC4)cc3)nc3ccc(F)cc23)c1
IC50 at 72 h [1]: > 10 µM
IC50 [2]: 2020 nM
IC50 [3]: 1380 nM
IC50 at 72 h [4]: 8.52 µM

C=CC(=O)Nc1cccc(Nc2nc(Nc3ccc(N4CCC(N5CCOCC5)CC4)cc3)nc3ccc(Cl)cc23)c1
IC50 at 72 h [1]: > 10 µM
IC50 [2]: 7650 nM
IC50 [3]: 5720 nM
IC50 at 72 h [4]: > 10 µM

CN1CCN(c2ccc(Nc3nc(Nc4cccc(NC(=O)/C=C/c5ccccc5)c4)c4cc(Cl)ccc4n3)cc2)CC1
IC50 at 72 h [1]: 3.22 µM
IC50 [2]: 2310 nM
IC50 [3]: 1010 nM
IC50 at 72 h [4]: > 10 µM

C=CC(=O)Nc1cccc(Nc2nc(Nc3ccc(N4CCC(N5CCN(C)CC5)CC4)cc3OC)nc3ccc(F)cc23)c1
IC50 at 72 h [1]: > 10 µM
IC50 [2]: 1020 nM
IC50 [3]: 1060 nM
IC50 at 72 h [4]: 8.95 µM

C=CC(=O)Nc1cccc(Nc2nc(Nc3ccc(N4CCN(C)CC4)cc3)nc3cccc(Cl)c23)c1
IC50 at 72 h [1]: 4.58 µM
IC50 [2]: 1020 nM
IC50 [3]: 987 nM
IC50 at 72 h [4]: 3.88 µM

C=CC(=O)Nc1cccc(Nc2nc(Nc3ccc(N4CCN(C)CC4)cc3)nc3cc(F)ccc23)c1
IC50 at 72 h [1]: 9.04 µM
IC50 [2]: 2340 nM
IC50 [3]: 1040 nM
IC50 at 72 h [4]: 7.81 µM

C=CC(=O)Nc1cccc(Nc2nc(Nc3ccc(N4CCN(C)CC4)cc3)nc3cc(OC)ccc23)c1
IC50 at 72 h [1]: > 10 µM
IC50 [2]: 7840 nM
IC50 [3]: 4310 nM
IC50 at 72 h [4]: > 10 µM
